Data taken from US20150133388A1, “ACETYLATED CRYSTALLIN POLYPEPTIDES AND MIMETICS THEREOF AS THERAPEUTIC AGENTS” (Case Western Reserve University, priority 2012, published 2015).
No end group written: not given here.

How the values were obtained:
[1] = tested on: lens protein aggregation; assay: Histology (H&E) of lens protein aggregation in selenite cataract; assay type: in vivo, rat; details: multiple injections 10 μg
Experimental: (§1) Neonatal Sprague-Dawley rat pups (12 days old) were used for these experiments. The pups in the experimental groups received a single subcutaneous injection of sodium selenite (4 mg/Kg body weight) on day 12. Peptides diluted from a stock in sterile water (dissolved by adding 2 μl of 10 N NaOH to a 1.0 ml stock) were injected intraperitoneally (at 2.5, 5, or 10 μg/animal) 6 h prior to selenite injection (single injection). When multiple injections were performed, one pre-selenite injection was administered, as above, followed by four additional injections on four consecutive days after the sodium selenite injection. One group served as the control (no treatment) and another as the selenite control (no peptide injection). The lenses were examined on day 17 (when the pups had opened their eyes) using a slit lamp microscope (after dilating the pupil through topical application of tropicamide) and photographed. For hematoxylin and eosin (H & E) and TUNEL staining, eyes were fixed immediately after enucleation in a 10% buffered formalin solution overnight.

[2] = tested on: lens epithelial cells; assay: Lens epithelial cell apoptosis in selenite cataract (in situ TUNEL); assay type: in vivo, rat; details: multiple 10 μg injections
Experimental: as §1

[3] = tested on: caspase-9; assay: Caspase-9 activity in thermally stressed CHO cells; assay type: cell-based, Chinese hamster; details: 4 μg/ml
Experimental: (§2) Cells were lysed in cell lysis buffer (Cell signaling), and lenses were homogenized in 50 mM Tris-buffered saline. Both buffers contained a protease inhibitor cocktail (1:100 dilution). An equal volume of a fluorogenic substrate solution[2× reaction buffer: 10 mM DTT and 50 μM Ac-DEVD-AFC (for caspase-3) or Ac-LEHDAFC (for caspase-9)] was added to each lysate. The lysates were then incubated for 2 h at 37° C. in the dark. The samples were analyzed with a […] spectrofluorometer (HORIBA Scientific, Edison, N.J.) at excitation/emission wavelengths 400/505 nm.

[4] = tested on: Human lens epithelial cells (HLE); assay: Hyperthermia-induced apoptosis in HLE cells (Hoechst stain); assay type: cell-based; details: 43° C. 1 h; for rate of apoptosis after peptide pretreatment: 4 μg/ml in BP 4 h, without peptide nearly 40%
Experimental: (§3) Human lens epithelial cells (HLE) were isolated from the lens of a donor and cultured in DMEM supplemented with 10% FBS as previously described for mouse lens epithelial cells. Cells between passages 5 and 6 were used for the experiments. Chinese hamster ovary (CHO) cells were cultured in Ham's F12 medium. The α-crystallin peptides were mixed with a cationic lipid, BIOPORTER (BP), according to the manufacturer's instructions (Polyplus transfection reagent, Illkirch, France). When the cultures reached 70-80% confluence, the cells were treated with BP either alone or with the peptides in serumfree medium and incubated for 4 h at 37° C. in a humidified 5% CO2 atmosphere. The cells were then washed with PBS and incubated at 43° C. for 1 h (thermal stress), followed by incubation at 37° C. for 16 h for recovery. The percentage of apoptotic cells was determined by staining the cells with Hoechst. Cells incubated at 37° C. without thermal stress were used as controls.

[5] = tested on: selenite-induced cataracts; assay: Selenite-induced cataract in rat pups (slit lamp); assay type: in vivo
Experimental: as §1

[6] = tested on: caspase-3; assay: Caspase-3 activity in thermally stressed CHO cells; assay type: cell-based, Chinese hamster; details: 4 μg/ml
Experimental: as §2

[7] = tested on: CHO cells; assay: Hyperthermia-induced apoptosis in CHO cells (Hoechst stain); assay type: cell-based, Chinese hamster; details: for inhibition of apoptosis: untreated rate ~28%
Experimental: as §3

[8] = tested on: insulin (IN); assay: Chaperone assay, client protein insulin; assay type: biochemical
Experimental: (§4) Chaperone assays were performed as previously described. The ratios of the peptides: client proteins (w/w) were as follows: citrate synthase, 1:2.5; insulin, 1:10; βL-crystallin, 1:1.5; and γ-crystallin, 1:1. The scrambled αA-crystallin peptide was tested in certain assays at peptide: client protein ratios as follows: citrate synthase, 1:1.25, insulin, 1:5 to determine peptide specificity.

[9] = tested on: βL-crystallin (BLC); assay: Chaperone assay, client protein βL-crystallin; assay type: biochemical; details: peptide:βL-crystallin 1:1.5 (w/w)
Experimental: as §4

[10] = biological target: T1, citrate synthase (CS) (Sus scrofa, UniProt P00889); assay: Chaperone assay, client protein citrate synthase; assay type: biochemical
T1 construct: purchased Sigma-Aldrich Chemical Co. (St. Louis, Mo.)
T1 sequence (P00889 28-464): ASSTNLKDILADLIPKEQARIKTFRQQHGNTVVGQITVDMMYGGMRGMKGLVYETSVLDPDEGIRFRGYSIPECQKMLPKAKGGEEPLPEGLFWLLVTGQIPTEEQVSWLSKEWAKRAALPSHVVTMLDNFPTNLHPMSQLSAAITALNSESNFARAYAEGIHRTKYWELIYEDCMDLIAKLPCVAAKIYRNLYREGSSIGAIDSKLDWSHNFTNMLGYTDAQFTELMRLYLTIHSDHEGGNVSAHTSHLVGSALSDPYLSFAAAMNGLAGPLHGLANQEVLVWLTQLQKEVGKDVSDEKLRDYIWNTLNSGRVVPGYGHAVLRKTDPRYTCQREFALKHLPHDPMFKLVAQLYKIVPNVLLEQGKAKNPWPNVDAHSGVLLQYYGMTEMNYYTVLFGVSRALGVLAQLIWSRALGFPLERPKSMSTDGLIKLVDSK
Experimental: as §4

[11] = tested on: γ-crystallin (GC); assay: Chaperone assay, client protein γ-crystallin; assay type: biochemical; details: peptide:γ-crystallin 1:1 (w/w)
Experimental: as §4

[12] = tested on: lens epithelial cells; assay: Calcimycin-induced apoptosis in organ-cultured mouse lenses (TUNEL); assay type: cell-based; details: 5 μM calcimycin
Experimental: The animal experiments conformed to the ARVO Statement for the Use of Animals in Ophthalmic and Vision Research and were approved by the CWRU's Animal Care and Use Committee. Lenses were dissected from the eyes of ˜3-month-old C57B1/6 mice and maintained in artificial aqueous humor (AAH) (113 mM NaCl, 4.5 mM KCl, 1 mM MgCl2, 1.5 mM CaCl2, 6 mM D-glucose, 10 mM HEPES, 20 mM NaHCO3, and 1:1,000 penicillin/streptomycin, pH 7.3). Lenses that developed opacification within 24 h were discarded. Native and acetyl αA- and αB crystallin peptides were added to the culture medium at a concentration of 50 μg/3.0 ml, followed by incubation of the lenses for 16 h. The medium was replaced with fresh medium containing 5 μM calcimycin, and the lenses were incubated for an additional 6 h. After this incubation period, the lenses were thoroughly washed with PBS, fixed in 1% buffered formalin overnight, and embedded in paraffin. Microtome sections (5 μm) were subsequently rehydrated and subjected to antigen retrieval via microwave irradiation in 10 mM citrate buffer (pH 6.0). Apoptosis was measured using the In situ Cell Death Detection Kit (Roche, Indianapolis, Ind.) according to the manufacturer's instructions. The sections were counterstained with DAPI to visualize nuclei.

[13] = biological target: the above four client proteins (citrate synthase, insulin, βL-crystallin, γ-crystallin); assay: cell-based or functional assay
[14] = multiple i.p. injections 10 μg/animal
[15] = single i.p. injection 2.5 μg/animal 6 h prior to selenite
[16] = single i.p. injection 10 μg/animal 6 h prior to selenite
[17] = 1 μg/ml peptide in BIOPORTER 4 h, 43° C. 1 h
[18] = 2 μg/ml peptide in BIOPORTER 4 h, 43° C. 1 h
[19] = 4 μg/ml peptide in BIOPORTER 4 h, 43° C. 1 h
[20] = multiple i.p. injections 5 μg/animal

73DRFSVNLDVKHFSPEELKVKV93 (listed as Homo sapiens) [αB-native peptide]
inhibition of protein aggregation in the lens center (H&E) [1]: inhibited | inhibition of lens epithelial cell apoptosis (TUNEL) [2]: inhibited apoptosis | inhibition of caspase-9 activity [3]: 51% | rate of apoptosis after peptide pretreatment [4]: 18% | inhibition of cataract development [5, 14]: inhibited cataract development | inhibition of cataract development [5, 15]: ineffective | inhibition of cataract development [5, 16]: strongly inhibited cataract development | inhibition of caspase-3 activity [6]: 80% | inhibition of apoptosis [7, 17]: 8% | inhibition of apoptosis [7, 18]: 12% | inhibition of apoptosis [7, 19]: 17%

69DKFVIFLDVKHFSPEDLTVK88 (listed as Homo sapiens) [αA-native peptide]
inhibition of protein aggregation in the lens center (H&E) [1]: inhibited | inhibition of lens epithelial cell apoptosis (TUNEL) [2]: inhibited apoptosis | inhibition of caspase-9 activity [3]: 51% | rate of apoptosis after peptide pretreatment [4]: 22% | inhibition of cataract development [5, 20]: strongly inhibited cataracts | inhibition of cataract development [5, 14]: entirely inhibited cataracts | inhibition of cataract development [5, 15]: ineffective | inhibition of caspase-3 activity [6]: 80% | inhibition of apoptosis [7, 17]: 12% | inhibition of apoptosis [7, 18]: 14% | inhibition of apoptosis [7, 19]: 17%

69DK (acetyl) FVIFLDVKHFSPEDLTVK88 (DK(Ac)FVIFLDVKHFSPEDLTVK; listed as Homo sapiens) [αA-acetyl peptide]
chaperone function compared with the native peptide ([8]; peptide:insulin 1:10 (w/w)): significantly better | inhibition of protein aggregation in the lens center (H&E) [1]: inhibited | inhibition of lens epithelial cell apoptosis (TUNEL) [2]: inhibited apoptosis | chaperone function compared with the native peptide [9]: not different | inhibition of caspase-9 activity [3]: 53% | chaperone function compared with the native peptide ([10]; peptide:citrate synthase 1:2.5 (w/w)): significantly better | chaperone function compared with the native peptide [11]: significantly better | rate of apoptosis after peptide pretreatment [4]: 25% | inhibition of cataract development ([5]; multiple i.p. injections 2.5 μg/animal): partially inhibited cataract development | inhibition of cataract development [5, 20]: strongly inhibited cataracts | inhibition of cataract development [5, 14]: entirely inhibited cataracts | inhibition of cataract development [5, 15]: ineffective | inhibition of cataract development ([5]; single i.p. injection 5 μg/animal 6 h prior to selenite): more effective than the native peptide | inhibition of cataract development [5, 16]: more effective than the native peptide | inhibition of caspase-3 activity [6]: 90% | more effective than the native peptide in inhibiting apoptosis ([7]; at the 2 and 4 μg concentrations): at least 5%

DFVIDSPFKLVDLEKVHFTK (listed as Homo sapiens) [αA-scrambled peptide]
chaperone function ([8]; peptide:IN 1:5, two times higher concentration than native and acetyl peptides): did not function as a chaperone | chaperone function ([10]; peptide:CS 1:1.25, two times higher concentration than native and acetyl peptides): did not function as a chaperone | protection from calcimycin-induced apoptosis (in words) [12]: did not protect the cells | inhibition of apoptosis (in words) ([4]; 4 μg/ml): did not inhibit apoptosis | inhibition of cataract development [5, 14]: entirely ineffective | inhibition of apoptosis (in words) ([7]; 4 μg/ml, 43° C. 1 h): did not inhibit apoptosis

DRFSVNLDVKHFSPEELKVK(Ac)V [αB-crystallin acetyl peptide 73…(acetyl)V93]
chaperone function, against the native αB peptide (percent weaker) [13]: 10 to 30%
